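Compound exposure: 48 hours, 5 concentrations, 96-well plates. GI50: concentration for 50% inhibition of growth. TGI: total growth inhibition.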
Experiments:
Test in all cases: inhibition of tumour cell growth, NCI panel, 48 h
[1] = test system: 786-0 renal
[2] = test system: A498 renal
[3] = test system: A549 NSCLC
[4] = test system: ACHN renal
[5] = test system: BT-549 breast
[6] = test system: CAKI-1 renal
[7] = test system: CCRF-CEM leukemia
[8] = test system: COLO 205 colon
[9] = test system: DU-145 prostate
[10] = test system: HCC-2998 colon
[11] = test system: HCT-116 colon
[12] = test system: HCT-15 colon
[13] = test system: HL-60(TB) leukemia
[14] = test system: HOP-62 NSCLC
[15] = test system: HOP-92 NSCLC
[16] = test system: HS 578T breast
[17] = test system: HT29 colon
[18] = test system: IGROV1 ovarian
[19] = test system: K-562 leukemia
[20] = test system: KM12 colon
[21] = test system: LOX IMVI melanoma
[22] = test system: M14 melanoma
[23] = test system: MALME-3M melanoma
[24] = test system: MCF7 breast
[25] = test system: MDA-MB-231 breast
[26] = test system: MDA-MB-435
[27] = test system: MOLT-4 leukemia
[28] = test system: NCI-H226 lung
[29] = test system: NCI-H23 lung
[30] = test system: NCI-H460 lung
[31] = test system: NCI-H522 lung
[32] = test system: NCI/ADR-RES ovarian
[33] = test system: OVCAR-3 ovarian
[34] = test system: OVCAR-4 ovarian
[35] = test system: OVCAR-5 ovarian
[36] = test system: OVCAR-8 ovarian
[37] = test system: PC-3 prostate
[38] = test system: RPMI-8226 leukemia
[39] = test system: RXF 393 renal
[40] = test system: SF-268 CNS
[41] = test system: SF-295 CNS
[42] = test system: SF-539 CNS
[43] = test system: SK-MEL-2 melanoma
[44] = test system: SK-MEL-28 melanoma
[45] = test system: SK-MEL-5 melanoma
[46] = test system: SK-OV-3 ovarian
[47] = test system: SN12C renal
[48] = test system: SNB-19 CNS
[49] = test system: SNB-75 CNS
[50] = test system: SR leukemia
[51] = test system: SW-620 colon
[52] = test system: T-47D breast
[53] = test system: TK-10 renal
[54] = test system: U251 CNS
[55] = test system: UACC-257 melanoma
[56] = test system: UACC-62 melanoma
[57] = test system: UO-31 renal
[58] = test system: EKVX NSCLC

SMILES: COc1cc(/C=N\Nc2ccccc2)ccc1OC(=O)c1ccccc1
- GI50 [1]: 5.09 µM
- TGI [1]: > 100 µM
- GI50 [2]: 20 µM
- TGI [2]: > 92.9 µM
- GI50 [3]: 4.01 µM
- TGI [3]: 37.5 µM
- GI50 [4]: 0.675 µM
- TGI [4]: > 100 µM
- GI50 [5]: 8.34 µM
- TGI [5]: 62.3 µM
- GI50 [6]: 2.27 µM
- TGI [6]: 33.7 µM
- GI50 [7]: 2.44 µM
- TGI [7]: > 100 µM
- GI50 [8]: 6.48 µM
- TGI [8]: 25.5 µM
- GI50 [9]: 39.4 µM
- TGI [9]: > 100 µM
- GI50 [10]: 3.83 µM
- TGI [10]: 17.1 µM
- GI50 [11]: 5.76 µM
- TGI [11]: > 100 µM
- GI50 [12]: 0.306 µM
- TGI [12]: 17.6 µM
- GI50 [13]: 0.544 µM
- TGI [13]: > 72.1 µM
- GI50 [14]: 8.38 µM
- TGI [14]: > 64.7 µM
- GI50 [15]: 12.2 µM
- TGI [15]: > 89 µM
- GI50 [16]: 18 µM
- TGI [16]: > 100 µM
- GI50 [17]: 3.72 µM
- TGI [17]: 17.7 µM
- GI50 [18]: 2.76 µM
- TGI [18]: > 100 µM
- GI50 [19]: 0.369 µM
- TGI [19]: 11.8 µM
- GI50 [20]: 0.778 µM
- TGI [20]: > 68.8 µM
- GI50 [21]: 0.296 µM
- TGI [21]: 4.57 µM
- GI50 [22]: 0.677 µM
- TGI [22]: 15.8 µM
- GI50 [23]: 7.55 µM
- TGI [23]: > 100 µM
- GI50 [24]: 1.57 µM
- TGI [24]: 23.7 µM
- GI50 [25]: 1.91 µM
- TGI [25]: 32.2 µM
- GI50 [26]: 1.25 µM
- TGI [26]: > 100 µM
- GI50 [27]: 1.94 µM
- TGI [27]: > 100 µM
- GI50 [28]: 10.2 µM
- TGI [28]: > 77.6 µM
- GI50 [29]: 15.8 µM
- TGI [29]: > 100 µM
- GI50 [30]: 1.22 µM
- TGI [30]: > 46 µM
- GI50 [31]: 1.02 µM
- TGI [31]: > 76.6 µM
- GI50 [32]: 0.903 µM
- TGI [32]: > 100 µM
- GI50 [33]: 4.19 µM
- TGI [33]: > 68.9 µM
- GI50 [34]: 8.21 µM
- TGI [34]: > 100 µM
- GI50 [35]: 12.8 µM
- TGI [35]: > 100 µM
- GI50 [36]: 3.46 µM
- TGI [36]: > 100 µM
- GI50 [37]: 0.921 µM
- TGI [37]: 22.7 µM
- GI50 [38]: 3.79 µM
- TGI [38]: > 55.9 µM
- GI50 [39]: 23.2 µM
- TGI [39]: 74.6 µM
- GI50 [40]: 4.54 µM
- TGI [40]: > 100 µM
- GI50 [41]: 1.92 µM
- TGI [41]: 10.7 µM
- GI50 [42]: 0.486 µM
- TGI [42]: 2.22 µM
- GI50 [43]: 2.1 µM
- TGI [43]: 60 µM
- GI50 [44]: 19.2 µM
- TGI [44]: > 93.1 µM
- GI50 [45]: 1.53 µM
- TGI [45]: 18.9 µM
- GI50 [46]: 45.6 µM
- TGI [46]: > 100 µM
- GI50 [47]: 11 µM
- TGI [47]: > 100 µM
- GI50 [48]: 19.8 µM
- TGI [48]: > 100 µM
- GI50 [49]: 12.8 µM
- TGI [49]: 61.9 µM
- GI50 [50]: 16.5 µM
- TGI [50]: > 100 µM
- GI50 [51]: 0.736 µM
- TGI [51]: 19.9 µM
- GI50 [52]: 0.268 µM
- TGI [52]: > 85.9 µM
- GI50 [53]: 16.5 µM
- TGI [53]: 68.3 µM
- GI50 [54]: 8.38 µM
- TGI [54]: 36.5 µM
- GI50 [55]: 7.12 µM
- TGI [55]: > 100 µM
- GI50 [56]: 0.311 µM
- TGI [56]: 4.47 µM
- GI50 [57]: 0.792 µM
- TGI [57]: > 40.2 µM

SMILES: C(/C=C(\Nc1ccccc1)c1ccc2ccccc2c1)=Nc1ccccc1
- TGI [1]: 8.9 µM
- TGI [2]: 25.8 µM
- TGI [3]: 18.4 µM
- TGI [4]: 11.5 µM
- TGI [5]: 4.6 µM
- TGI [6]: 7.22 µM
- TGI [7]: 2.85 µM
- TGI [8]: 4.1 µM
- TGI [9]: 6.29 µM
- TGI [11]: 10 µM
- TGI [12]: 5.61 µM
- TGI [13]: 11.8 µM
- TGI [14]: 7.05 µM
- TGI [15]: 28.1 µM
- TGI [16]: 13.7 µM
- TGI [18]: 13.7 µM
- TGI [19]: 4.22 µM
- TGI [20]: 12.2 µM
- TGI [21]: 5.4 µM
- TGI [22]: 6.14 µM
- TGI [23]: 15 µM
- TGI [24]: 15.7 µM
- TGI [25]: 4.1 µM
- TGI [26]: 1.27 µM
- TGI [27]: 2.62 µM
- TGI [28]: 5.64 µM
- TGI [29]: 6.63 µM
- TGI [30]: 11.9 µM
- TGI [31]: 19 µM
- TGI [32]: 3.93 µM
- TGI [33]: 4.08 µM
- TGI [34]: 14.5 µM
- TGI [35]: 9.86 µM
- TGI [36]: 14.1 µM
- TGI [37]: 11.8 µM
- TGI [38]: 5.67 µM
- TGI [39]: 7.41 µM
- TGI [40]: 29.5 µM
- TGI [41]: 4.28 µM
- TGI [42]: 4.1 µM
- TGI [43]: 30.9 µM
- TGI [44]: 0.961 µM
- TGI [45]: 13.8 µM
- TGI [46]: 11.5 µM
- TGI [47]: 5.15 µM
- TGI [48]: 8.24 µM
- TGI [49]: 8.39 µM
- TGI [50]: 2.49 µM
- TGI [51]: 17.3 µM
- TGI [52]: 12.9 µM
- TGI [53]: 4.47 µM
- TGI [54]: 8.66 µM
- TGI [55]: 19.2 µM
- TGI [56]: 3.37 µM
- TGI [57]: 15.8 µM

SMILES: COc1cc([C@H]2OC[C@@H]3C(c4cc(OC)c5c(c4)OCO5)OC[C@H]23)cc(OC)c1OC (stereo partly drawn)
- TGI [1]: > 100 µM
- TGI [2]: > 100 µM
- TGI [3]: > 100 µM
- TGI [4]: > 100 µM
- TGI [5]: > 100 µM
- TGI [6]: > 100 µM
- TGI [7]: > 100 µM
- TGI [8]: > 100 µM
- TGI [9]: > 100 µM
- TGI [58]: > 100 µM
- TGI [10]: > 100 µM
- TGI [11]: > 100 µM
- TGI [12]: > 100 µM
- TGI [14]: > 100 µM
- TGI [15]: > 100 µM
- TGI [16]: > 100 µM
- TGI [17]: > 100 µM
- TGI [18]: > 100 µM
- TGI [19]: > 100 µM
- TGI [20]: > 100 µM
- TGI [21]: > 100 µM
- TGI [22]: > 100 µM
- TGI [24]: > 100 µM
- TGI [25]: > 100 µM
- TGI [26]: > 100 µM
- TGI [27]: > 100 µM
- TGI [28]: > 100 µM
- TGI [29]: > 100 µM
- TGI [30]: > 100 µM
- TGI [31]: > 100 µM
- TGI [32]: > 100 µM
- TGI [33]: > 100 µM
- TGI [34]: > 100 µM
- TGI [35]: > 100 µM
- TGI [36]: > 100 µM
- TGI [37]: > 100 µM
- TGI [38]: > 100 µM
- TGI [40]: > 100 µM
- TGI [41]: > 100 µM
- TGI [42]: > 100 µM
- TGI [43]: > 100 µM
- TGI [44]: > 100 µM
- TGI [45]: 44.9 µM
- TGI [46]: > 100 µM
- TGI [48]: > 100 µM
- TGI [49]: > 100 µM
- TGI [50]: > 100 µM
- TGI [51]: > 100 µM
- TGI [52]: > 100 µM
- TGI [53]: > 100 µM
- TGI [54]: > 100 µM
- TGI [55]: > 100 µM
- TGI [56]: > 100 µM
- TGI [57]: > 100 µM
